Measurements: patent US20240018161A1, “MODULATORS OF CYSTIC FIBROSIS TRANSMEMBRANE CONDUCTANCE REGULATOR” (VERTEX PHARMACEUTICALS INCORPORATED, priority 2020, published 2024)

Experiments:
[1] = target: T1, CFTR-mediated chloride transport in human intestinal epithelial enteroid cells (Homo sapiens, UniProt P13569); assay: Membrane potential dye, Enteroid Assay B; assay type: cell-based; conditions: for EC50: read-out: Ent. B EC50
Description: Base medium (ADF+++) consisted of Advanced DMEM/Ham's F12, 2 mM Glutamax, 10 mM HEPES, […] penicillin/streptomycin.
Bath 1 Buffer consisted of 1 mM MgCl2, 160 mM NaCl, 4.5 mM KCl, 10 mM HEPES, 10 mM Glucose, 2 mM CaCl2.
Chloride Free Buffer consisted of 1 mM Magnesium Gluconate, 2 mM Calcium Gluconate, 4.5 mM Potassium Gluconate, 160 mM Sodium Gluconate, 10 mM HEPES, 10 mM Glucose.
Bath1 Dye Solution consisted of Bath 1 Buffer, 0.04% Pluronic F127, 20 μM Methyl Oxonol, 30 μM CaCCinh-A01, 30 μM Chicago Sky Blue.
Chloride Free Dye Solution consisted of Chloride Free Buffer, 0.04% Pluronic F127, 20 μM Methyl Oxonol, 30 μM CaCCinh-A01, 30 μM Chicago Sky Blue.
3. Enteroid Cell Harvesting and Seeding
Cells were recovered in cell recovery solution, collected by centrifugation at 650 rpm for 5 min at 4° C., resuspended in TryPLE and incubated for 5 min at 37° C. Cells were then collected by centrifugation at 650 rpm for 5 min at 4° C. and resuspended in IEMM containing 10 μM ROCK inhibitor (RI).
5. Membrane Potential Dye, Enteroid Assay B
Briefly, cells were washed 5 times in Bath 1 Buffer. Bath 1 Dye Solution was added and the cells were incubated for 25 min at room temperature. Following dye incubation, cells were washed 3 times in Chloride Free Dye Solution. Chloride transport was initiated by addition of Chloride Free Dye Stimulation Solution and the fluorescence signal was read for 15 min.

[2] = target: T1, CFTR-mediated chloride transport in human intestinal epithelial enteroid cells; assay: Membrane potential dye, Enteroid Assay A; assay type: cell-based; conditions: for EC50: read-out: Ent. A EC50
Outline: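 Membrane potential dye (20 μM methyl oxonol, with 30 μM CaCCinh-A01 and 30 μM Chicago Sky Blue) loaded 25 min at room temperature into ROCK-inhibitor-seeded human enteroid cells. Chloride-free stimulation buffer triggered transport, followed by 15 min fluorescence. % Activity relative to 3 μM/3 μM/300 nM triple-combination control.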

[3] = enteroid cells incubated with test compound 18-24 hours, acute 10 μM forskolin and 300 nM N-[2,4-bis(1,1-dimethylethyl)-5-hydroxyphenyl]-1,4-dihydro-4-oxoquinoline-3-carboxamide
[4] = percentage of chloride transport of triple combination control (1 μM (14S)-8-[3-(2-{Dispiro[2.0.2.1]heptan-7-yl}ethoxy)-1H-pyrazol-1-yl]-... trione based)
[5] = percentage of chloride transport of triple combination control (3 μM N-[(6-amino-2-pyridyl)sulfonyl]-6-(3-fluoro-5-isobutoxy-phenyl)-2-[(4S)-2,2,4-trimethylpyrrolidin-1-yl]pyridine-3-carboxamide based)

T1 sequence (P13569 with tags, fused parts or gaps DEL508-508): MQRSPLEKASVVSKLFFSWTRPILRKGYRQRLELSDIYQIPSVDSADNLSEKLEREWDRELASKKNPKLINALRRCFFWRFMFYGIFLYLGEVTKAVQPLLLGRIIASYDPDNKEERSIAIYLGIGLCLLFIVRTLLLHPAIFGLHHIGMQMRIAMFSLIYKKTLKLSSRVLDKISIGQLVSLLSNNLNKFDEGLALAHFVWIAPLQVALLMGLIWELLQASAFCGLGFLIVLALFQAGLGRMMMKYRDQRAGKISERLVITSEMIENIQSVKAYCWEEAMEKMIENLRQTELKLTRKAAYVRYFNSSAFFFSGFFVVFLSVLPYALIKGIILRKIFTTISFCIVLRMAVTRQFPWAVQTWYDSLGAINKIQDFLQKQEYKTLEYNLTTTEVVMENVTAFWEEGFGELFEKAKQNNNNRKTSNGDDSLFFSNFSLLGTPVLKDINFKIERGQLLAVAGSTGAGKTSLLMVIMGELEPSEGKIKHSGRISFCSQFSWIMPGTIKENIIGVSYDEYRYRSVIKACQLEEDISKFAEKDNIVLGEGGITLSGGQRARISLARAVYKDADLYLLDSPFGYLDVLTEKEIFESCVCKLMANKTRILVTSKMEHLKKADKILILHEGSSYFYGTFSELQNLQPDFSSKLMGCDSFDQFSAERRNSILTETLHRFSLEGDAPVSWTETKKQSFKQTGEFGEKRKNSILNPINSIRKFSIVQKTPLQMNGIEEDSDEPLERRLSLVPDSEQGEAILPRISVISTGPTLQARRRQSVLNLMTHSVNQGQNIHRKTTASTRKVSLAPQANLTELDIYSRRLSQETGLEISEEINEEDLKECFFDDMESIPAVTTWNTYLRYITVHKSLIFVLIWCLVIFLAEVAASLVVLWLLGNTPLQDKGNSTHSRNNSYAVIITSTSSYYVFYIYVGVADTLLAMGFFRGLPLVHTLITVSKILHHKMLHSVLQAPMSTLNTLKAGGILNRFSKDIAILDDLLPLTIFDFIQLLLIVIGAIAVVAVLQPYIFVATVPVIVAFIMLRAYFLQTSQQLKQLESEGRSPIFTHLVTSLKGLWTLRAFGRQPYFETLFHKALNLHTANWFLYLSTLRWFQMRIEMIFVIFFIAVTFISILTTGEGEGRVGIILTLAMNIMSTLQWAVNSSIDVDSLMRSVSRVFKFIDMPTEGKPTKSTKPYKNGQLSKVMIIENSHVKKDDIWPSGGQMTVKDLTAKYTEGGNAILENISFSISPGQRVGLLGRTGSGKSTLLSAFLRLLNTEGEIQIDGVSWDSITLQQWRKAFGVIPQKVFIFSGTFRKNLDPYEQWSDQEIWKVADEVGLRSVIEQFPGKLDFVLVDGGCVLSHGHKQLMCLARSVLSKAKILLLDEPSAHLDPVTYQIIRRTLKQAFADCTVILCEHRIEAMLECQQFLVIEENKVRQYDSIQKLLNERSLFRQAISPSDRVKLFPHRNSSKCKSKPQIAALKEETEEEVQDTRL

| Compound | Ent. B Max Activity (%) ([1]; Enteroid Assay B) | EC50 ([1]; Enteroid Assay B) | Ent. A Max Activity (%) ([2]; Enteroid Assay A) | EC50 ([2]; Enteroid Assay A) | EC50 [1, 3] | Ent. B Max Activity (%) [1, 4] | EC50 [2, 3] | Ent. A Max Activity (%) [2, 5] |
| --- | --- | --- | --- | --- | --- | --- | --- | --- |
| Cc1cccc(C)c1-c1cc2nc(n1)NS(=O)(=O)c1cccc(c1)C(=O)N1Cc3cc(C(C)(C)C)ccc3C(C1)O2 (single isomer, unassigned) [Compound 183, 20-tert-butyl-12-(2,6-dimethylphenyl)-15-oxa-8λ^6-thia-1,9,11,25-tetraazapentacyclo[14.7.1.13,7.110,14.017,22]hexacosa-3,5,7(26),10,12,14(25),17,19,21-nonaene-2,8,8-trione] | +++ (+++ is >600%) | < 1000 nM | +++ (+++ is >600%) | < 1000 nM | – | – | – | – |
| Cc1cccc(C)c1-c1cc2nc(n1)NS(=O)(=O)c1cccc(c1)C(=O)N1Cc3cc(C(C)(C)C)ccc3C(CO2)C1C (single isomer, unassigned) [Compound 219, 21-tert-butyl-12-(2,6-dimethylphenyl)-25-methyl-15-oxa-8λ^6-thia-1,9,11,26-tetraazapentacyclo[15.7.1.13,7.110,14.018,23]heptacosa-3,5,7(27),10,12,14(26),18,20,22-nonaene-2,8,8-trione] | +++ (+++ is >600%) | < 1000 nM | – | – | – | – | – | – |
| Cc1cccc(C)c1-c1cc2nc(n1)NS(=O)(=O)c1cccc(c1)C(=O)N1CCc3cc(C(C)(C)C)ccc3[C@H]1CO2 (single isomer, unassigned) [Compound 236, 8-tert-Butyl-17-(2,6-dimethylphenyl)-14-oxa-21λ^6-thia-3,18,20,27-tetraazapentacyclo[20.3.1.115,19.03,12.06,11]heptacosa-1(26),6(11),7,9,15(27),16,18,22,24-nonaene-2,21,21-trione] | +++ (+++ is >600%) | < 1000 nM | – | – | – | – | – | – |
| Cc1cccc(C)c1-c1cc2nc(n1)NS(=N)(=O)c1cccc(c1)C(=O)N1CCN(CCC(C)(C)C)C[C@H](C1)O2 (single isomer, unassigned) [Compound 245, 18-(3,3-dimethylbutyl)-12-(2,6-dimethylphenyl)-8-imino-15-oxa-8λ^6-thia-1,9,11,18,22-pentaazatetracyclo[14.4.1.13,7.110,14]tricosa-3,5,7(23),10,12,14(22)-hexaene-2,8-dione] | +++ (+++ is >600%) | < 1000 nM | ++ (++ is 30-60%) | < 1000 nM | – | – | – | – |
| Cc1cccc(C)c1-c1cc2nc(n1)NS(=O)(=O)c1cccc(c1)C(=O)N1Cc3cc(C(C)(C)C)ccc3C(O2)[C@H]1CC(C)(C)C (stereo in doubt) [Compound 188, (16S,24R)-20-tert-Butyl-12-(2,6-dimethylphenyl)-24-(2,2-dimethylpropyl)-15-oxa-8λ^6-thia-1,9,11,25-tetraazapentacyclo[14.7.1.13,7.110,14.017,22]hexacosa-3(26),4,6,10(25),11,13,17,19,21-nonaene-2,8,8-trione] | +++ (+++ is >600%) | < 1000 nM | +++ (+++ is >600%) | < 1000 nM | – | – | – | – |
| Cc1cccc(C)c1-c1cc2nc(n1)NS(=O)(=O)c1cccc(c1)C(=O)N1Cc3ccccc3[C@H](C1)O2 (stereo in doubt) [Compound 319] | – | – | – | – | < 1000 nM | +++ (+++ is >60%) | < 1000 nM | +++ (+++ is >60%) |
| Cc1cccc(C)c1-c1cc2nc(n1)NS(=O)(=O)c1cccc(c1)C(=O)N1CCN(CCC(C)(C)C)C[C@H](C1)O2 [Compound 1, (16R)-18-(3,3-Dimethylbutyl)-12-(2,6-dimethylphenyl)-15-oxa-8λ^6-thia-1,9,11,18,22-pentaazatetracyclo[14.4.1.13,7.110,14]tricosa-3,5,7(23),10,12,14(22)-hexaene-2,8,8-trione] | – | – | – | – | < 1000 nM | +++ (+++ is >60%) | < 1000 nM | +++ (+++ is >60%) |
| Cc1cccc(C)c1-c1cc2nc(n1)NS(=O)(=O)c1cccc(c1)C(=O)N1CCN[C@H](CC(C)C)[C@H](C1)O2 [Compound 118, (16S,17R)-12-(2,6-Dimethylphenyl)-17-(2-methylpropyl)-15-oxa-8λ^6-thia-1,9,11,18,22-pentaazatetracyclo[14.4.1.13,7.110,14]tricosa-3(23),4,6,10(22),11,13-hexaene-2,8,8-trione] | +++ (+++ is >600%) | < 1000 nM | – | – | – | – | – | – |
| Cc1cccc(C)c1-c1cc2nc(n1)NS(=O)(=O)c1cccc(c1)C(=O)N1CCN(C3CC4(CCCC4)C3)[C@H](CC(C)C)[C@H](C1)O2 [Compound 119, (16S,17R)-12-(2,6-dimethylphenyl)-17-(2-methylpropyl)-18-{spiro[3.4]octan-2-yl}-15-oxa-8λ^6-thia-1,9,11,18,22-pentaazatetracyclo[14.4.1.13,7.110,14]tricosa-3(23),4,6,10(22),11,13-hexaene-2,8,8-trione] | +++ (+++ is >600%) | < 1000 nM | – | – | – | – | – | – |
| Cc1cccc(C)c1-c1cc2nc(n1)NS(=O)(=O)c1cccc(c1)C(=O)N1CCN(C3CC4(CCCCC4)C3)[C@H](CC(C)C)[C@H](C1)O2 [Compound 120, (16S,17R)-12-(2,6-dimethylphenyl)-17-(2-methylpropyl)-18-{spiro[3.5]nonan-2-yl}-15-oxa-8λ^6-thia-1,9,11,18,22-pentaazatetracyclo[14.4.1.13,7.110,14]tricosa-3(23),4,6,10(22),11,13-hexaene-2,8,8-trione] | +++ (+++ is >600%) | < 1000 nM | – | – | – | – | – | – |
| Cc1cccc(C)c1-c1cc2nc(n1)NS(=O)(=O)c1cccc(c1)C(=O)N1CCN(C)[C@H](CC(C)C)[C@H](C1)O2 [Compound 121, (16S,17R)-12-(2,6-Dimethylphenyl)-18-methyl-17-(2-methylpropyl)-15-oxa-8λ^6-thia-1,9,11,18,22-pentaazatetracyclo[14.4.1.13,7.110,14]tricosa-3(23),4,6,10(22),11,13-hexaene-2,8,8-trione] | +++ (+++ is >600%) | < 1000 nM | – | – | – | – | – | – |
| Cc1cccc(C)c1-c1cc2nc(n1)NS(=O)(=O)c1cccc(c1)C(=O)N1CCN(C(=O)CC(C)(C)C)[C@H](CC(C)C)[C@H](C1)O2 [Compound 122, (16S,17R)-18-(3,3-Dimethylbutanoyl)-12-(2,6-dimethylphenyl)-17-(2-methylpropyl)-15-oxa-8λ^6-thia-1,9,11,18,22-pentaazatetracyclo[14.4.1.13,7.110,14]tricosa-3(23),4,6,10(22),11,13-hexaene-2,8,8-trione] | +++ (+++ is >600%) | < 1000 nM | – | – | – | – | – | – |
| Cc1cccc(C)c1-c1cc2nc(n1)NS(=N)(=O)c1cccc(c1)C(=O)N1CCN(C(=O)OC(C)(C)C)CC(C1)O2 (stereo not shown) [Compound 239, tert-Butyl 12-(2,6-dimethylphenyl)-8-imino-2,8-dioxo-15-oxa-8λ^6-thia-1,9,11,18,22-pentaazatetracyclo[14.4.1.13,7.110,14]tricosa-3,5,7(23),10,12,14(22)-hexaene-18-carboxylate] | +++ (+++ is >600%) | 1000 to 3000 nM | +++ (+++ is >600%) | 1000 to 3000 nM | – | – | – | – |
| Cc1cccc(C)c1-c1cc2nc(n1)NS(=O)(=O)c1cccc(c1)C(=O)N1CCc3cc(C(C)(C)C)ccc3[C@@H](O2)[C@H]1CC(C)C [Compound 329] | +++ (+++ is >600%) | < 1000 nM | – | – | – | – | – | – |
